Assay results reported in ChEMBL document CHEMBL5316331, “Modulating Cytotoxicity with Lego-like Chemistry: Upgrading Mitochondriotropic Antioxidants with Prototypical Cationic Carrier Bricks” (J Med Chem, 2023).
The source made the active and inactive calls. No cut-off for these calls is given here.

How the values were obtained:
SH-SY5Y [1] = assay: Neuroprotective activity against H2O2-induced human SH-SY5Y cells assessed as increase in cell viability at 10 uM preincubated for 30 mins followed by H2O2 addition and measured after 24 hrs by SRB assay; type: functional, cell-based; conditions: time 24.5 hrs
SH-SY5Y [2] = assay: Antioxidant activity against human SH-SY5Y cells assessed as effect on cellular OCR at 50 uM incubated for 24 hrs followed by addition of oligomycin/FCCP/antimycin A /rotenone by Cell Mito stress assay based seahorse XF96 flux analyzer; type: functional
[3] = Drug uptake in C57BL/6J mouse liver mitochondria at 5 uM in presence of rotenone by UPLC analysis; type: ADME
[4] = Drug uptake in C57BL/6J mouse liver mitochondria at 5 uM in presence of succinate by UPLC analysis; type: ADME
[5] = Cytotoxicity against human HepG2 cells assessed as cell viability incubated for 24 hrs; type: toxicity, cell-based; conditions: read-out: Activity
SH-SY5Y [6] = assay: Neuroprotective activity against H2O2-induced human SH-SY5Y cells assessed as increase in cell viability at 50 uM preincubated for 30 mins followed by H2O2 addition and measured after 24 hrs by SRB assay; type: functional, cell-based; conditions: time 24.5 hrs
SH-SY5Y [7] = assay: Cytotoxicity against human SH-SY5Y cells assessed as increase in cell viability at 10 to 100 uM incubated for 24 hrs; type: toxicity, cell-based; conditions: dose 10-100 µM
[8] = Drug uptake in C57BL/6J mouse liver mitochondria at 5 uM in presence of FCCP by UPLC analysis; type: ADME
SH-SY5Y [9] = assay: Antioxidant activity against human SH-SY5Y cells assessed as effect on cellular OCR at 10 uM incubated for 24 hrs followed by addition of oligomycin/FCCP/antimycin A /rotenone by Cell Mito stress assay based seahorse XF96 flux analyzer; type: functional
[10] = Cytotoxicity against human SH-SY5Y cells assessed as cell viability incubated for 24 hrs; type: toxicity, cell-based; conditions: read-out: Activity
SH-SY5Y [11] = assay: Cytotoxicity against human SH-SY5Y cells at > 10 uM incubated for 48 hrs; type: toxicity, cell-based
HepG2 = assay: Cytotoxicity against human HepG2 cells assessed as increase in cell viability at 10 to 100 uM incubated for 24 hrs; type: toxicity, cell-based; conditions: hepg2, 24 h, dose 10-100 µM
SH-SY5Y [12] = assay: Cytotoxicity against human SH-SY5Y cells incubated for 48 hrs; type: toxicity, cell-based
SH-SY5Y [13] = assay: Antioxidant activity against human SH-SY5Y cells assessed as increase in spare respiratory capacity at 50 uM incubated for 24 hrs followed by addition of oligomycin/FCCP/antimycin A /rotenone by Cell Mito stress assay based seahorse XF96 flux analyzer; type: functional
SH-SY5Y [14] = assay: Antioxidant activity against human SH-SY5Y cells assessed as increase in basal respiration at 10 uM incubated for 24 hrs followed by addition of oligomycin/FCCP/antimycin A /rotenone by Cell Mito stress assay based seahorse XF96 flux analyzer; type: functional
SH-SY5Y [15] = assay: Antioxidant activity against human SH-SY5Y cells assessed as increase in maximal respiration at 50 uM incubated for 24 hrs followed by addition of oligomycin/FCCP/antimycin A /rotenone by Cell Mito stress assay based seahorse XF96 flux analyzer; type: functional
SH-SY5Y [16] = assay: Antioxidant activity against human SH-SY5Y cells assessed as increase in basal ECAR at 10 uM incubated for 24 hrs followed by addition of oligomycin/FCCP/antimycin A /rotenone by Cell Mito stress assay based seahorse XF96 flux analyzer; type: functional
SH-SY5Y [17] = assay: Antioxidant activity against human SH-SY5Y cells assessed as increase in basal OCR at 10 uM incubated for 24 hrs followed by addition of oligomycin/FCCP/antimycin A /rotenone by Cell Mito stress assay based seahorse XF96 flux analyzer; type: functional
SH-SY5Y [18] = assay: Antioxidant activity against human SH-SY5Y cells assessed as increase in spare respiratory capacity at 10 uM incubated for 24 hrs followed by addition of oligomycin/FCCP/antimycin A /rotenone by Cell Mito stress assay based seahorse XF96 flux analyzer; type: functional
SH-SY5Y [19] = assay: Antioxidant activity against human SH-SY5Y cells assessed as increase in ATP production-linked respiration at 50 uM incubated for 24 hrs followed by addition of oligomycin/FCCP/antimycin A /rotenone by Cell Mito stress assay based seahorse XF96 flux analyzer; type: functional
SH-SY5Y [20] = assay: Antioxidant activity against human SH-SY5Y cells assessed as increase in maximal respiration at 10 uM incubated for 24 hrs followed by addition of oligomycin/FCCP/antimycin A /rotenone by Cell Mito stress assay based seahorse XF96 flux analyzer; type: functional
SH-SY5Y [21] = assay: Antioxidant activity against human SH-SY5Y cells assessed as increase in ATP production-linked respiration at 10 uM incubated for 24 hrs followed by addition of oligomycin/FCCP/antimycin A /rotenone by Cell Mito stress assay based seahorse XF96 flux analyzer; type: functional
SH-SY5Y [22] = assay: Antioxidant activity against human SH-SY5Y cells assessed as increase in basal respiration at 50 uM incubated for 24 hrs followed by addition of oligomycin/FCCP/antimycin A /rotenone by Cell Mito stress assay based seahorse XF96 flux analyzer; type: functional

Compound | Activity (SH-SY5Y [1]) | Drug uptake [3] | Drug uptake [4] | viability at 24 h [5] [%] | Activity (SH-SY5Y [6]) | Activity (SH-SY5Y [7]) | Drug uptake [8] | viability at 24 h [10] [%] | Activity (HepG2) | other results
CS(=O)(=O)[O-].Cn1cc[n+](CCCCCCCCCCNC(=O)/C=C/c2ccc(O)c(O)c2)c1 | inactive | Not Active | ~ 25% | ≥ 85 | inactive | Non-Toxic | Active | ≥ 85 | Non-Toxic | Activity (SH-SY5Y [2]): inactive; Activity (SH-SY5Y [9]): inactive; Activity (SH-SY5Y [11]): Toxic
CS(=O)(=O)[O-].Cc1cc[n+](CCCCCCCCCCNC(=O)/C=C/c2ccc(O)c(O)c2)cc1 | inactive | Not Active | ~ 25% | ≥ 85 | inactive | Non-Toxic | Active | ≥ 85 | Non-Toxic | Activity (SH-SY5Y [12]): Non-Toxic; Activity (SH-SY5Y [13]): Active; Activity (SH-SY5Y [14]): Active; Activity (SH-SY5Y [15]): Active; Activity (SH-SY5Y [16]): Active; Activity (SH-SY5Y [17]): Active; Activity (SH-SY5Y [18]): Active; Activity (SH-SY5Y [19]): Active; Activity (SH-SY5Y [20]): Active; Activity (SH-SY5Y [21]): Active; Activity (SH-SY5Y [22]): Active
